Test results: ChEMBL document CHEMBL1201862, “PubChem BioAssay data set” (2004)
Activity calls are given as the source filed them.

Columns and labels:
P388/ADR = test: cells; assay type: functional; settings: Mus musculus
SN12K1 = test: cells; assay type: functional; settings: Homo sapiens
P388 = test: cells; assay type: functional; settings: Mus musculus
[1] = target: T1, High affinity choline transporter 1 (Homo sapiens, UniProt Q9GZV3); test: CHT inhibitors, dose response, cell-based, 5-point CRC, membrane potential dye (AID 504840); assay type: functional
T1 sequence (Q9GZV3 whole entry): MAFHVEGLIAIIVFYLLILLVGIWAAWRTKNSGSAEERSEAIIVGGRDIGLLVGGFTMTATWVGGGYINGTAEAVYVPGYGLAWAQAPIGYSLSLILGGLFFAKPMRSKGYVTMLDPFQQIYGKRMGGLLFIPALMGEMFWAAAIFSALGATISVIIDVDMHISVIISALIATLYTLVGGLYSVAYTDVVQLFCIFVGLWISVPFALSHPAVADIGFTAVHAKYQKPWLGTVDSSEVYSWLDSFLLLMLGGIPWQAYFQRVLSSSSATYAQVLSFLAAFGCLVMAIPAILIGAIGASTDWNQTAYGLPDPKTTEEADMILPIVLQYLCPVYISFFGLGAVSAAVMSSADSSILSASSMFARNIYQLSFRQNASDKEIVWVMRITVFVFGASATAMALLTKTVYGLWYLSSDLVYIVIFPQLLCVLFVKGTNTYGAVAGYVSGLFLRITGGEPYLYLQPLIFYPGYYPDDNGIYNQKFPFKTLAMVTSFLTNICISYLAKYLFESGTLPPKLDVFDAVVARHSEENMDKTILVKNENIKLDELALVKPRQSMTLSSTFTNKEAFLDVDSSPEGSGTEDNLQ

[2] = target: FAD-linked sulfhydryl oxidase ALR (Homo sapiens, UniProt P55789); test: inhibitors of human ALR sulfhydryl oxidase, dose response, biochemical, H2O2 detection, luminescence, cherry-pick (AID 493248)
[3] = system: Streptococcus sp. 'group A'; test: growth inhibition of control SK(-) GAS strain, dose response, counter-screen for streptokinase expression inhibitor project, luminescence, kanamycin, BacTiterGlo, confirmation (AID 1900); assay type: functional, organism-based
[4] = inhibitors of intracellular T. cruzi replication, confirmation, NIH3T3 host cells, beta-gal luminescence (AID 2044); assay type: functional, cell-based;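 note: intracellular parasites grown in NIH/3T3 mouse fibroblasts as host cells; luminescent beta-galactosidase reporter signal from transgenic T. cruzi replicating inside host cells; inhibitors lower the luminescence signal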
[5] = cytotoxicity toward NIH3T3 fibroblasts, dose response, counter-screen, cell-based, ATP luminescence, mouse fibroblasts (AID 2010); assay type: functional;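 note: cells exposed to compound for about 90 hours before reading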
Streptococcus = test: Group A Streptococcus viability loss, dose response, counter-screen for streptokinase expression inhibitor project, luminescence, BacTiterGlo (AID 1915); assay type: functional, organism-based;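 note: potency for reduction of bacterial viability or growth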
INS1 = test: beta cell apoptosis inhibitors, cytokine rescue, dose response, luminescence, retest (AID 449756); assay type: functional, cell-based; settings: Rattus norvegicus;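 note: cell death triggered by IL-1 beta plus TNF-alpha plus IFN-gamma mixture; protective hits raise ATP signal compared with cytokine alone wells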
[6] = Shn3 3'UTR reporter inhibitors, dose response, cell-based, Clone20 osteoblasts, firefly luciferase, cherry-picked (AID 624132); assay type: functional;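 note: firefly luciferase luminescence from reporter carrying the Shn3 3'UTR in osteoblasts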
[7] = HepG2 cell cytotoxicity, dose response, cytotoxicity control for Shn3 inhibitor project, CellTiter-Glo, cherry-picked (AID 624134); assay type: functional, cell-based
[8] = control 3'UTR Renilla luciferase suppression, dose response, counter-screen for Shn3 inhibitor project, cell-based, Clone20-Shn3RL, cherry-picked (AID 624133); assay type: functional
[9] = target: T2, Heat shock factor protein 1 (Mus musculus, UniProt P38532); test: inhibition of MG132-induced HSE-luciferase signal, confirmation, cell-based, NIH3T3, luminescence, dose retest (AID 2382); assay type: functional;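 note: NIH3T3 fibroblasts with HSF1-driven luciferase reporter stressed by proteasome inhibitor MG132; luminescence from HSF1-driven luciferase expression after 8 hours of MG132 stress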
T2 sequence (P38532 whole entry): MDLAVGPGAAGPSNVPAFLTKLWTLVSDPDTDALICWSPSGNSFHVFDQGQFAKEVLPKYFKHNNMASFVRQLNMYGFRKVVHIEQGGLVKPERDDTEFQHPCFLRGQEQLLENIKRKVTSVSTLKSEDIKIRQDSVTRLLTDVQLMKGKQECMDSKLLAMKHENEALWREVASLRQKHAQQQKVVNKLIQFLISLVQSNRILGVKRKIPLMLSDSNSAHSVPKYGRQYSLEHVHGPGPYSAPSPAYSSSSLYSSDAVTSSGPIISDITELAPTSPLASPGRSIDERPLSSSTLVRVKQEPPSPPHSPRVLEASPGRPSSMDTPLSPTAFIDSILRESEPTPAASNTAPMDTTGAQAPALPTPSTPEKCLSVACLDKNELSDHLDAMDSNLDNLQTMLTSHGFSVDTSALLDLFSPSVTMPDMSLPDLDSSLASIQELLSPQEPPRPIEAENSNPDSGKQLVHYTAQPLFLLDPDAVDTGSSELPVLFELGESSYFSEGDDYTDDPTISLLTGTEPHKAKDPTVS

[10] = target: T3, Calpain-2 catalytic subunit (Sus scrofa, UniProt P43367); test: pig calpain II inhibitor potency, dose response, biochemical, fluorogenic peptide substrate (AID 1420); assay type: functional
T3 sequence (P43367 whole entry): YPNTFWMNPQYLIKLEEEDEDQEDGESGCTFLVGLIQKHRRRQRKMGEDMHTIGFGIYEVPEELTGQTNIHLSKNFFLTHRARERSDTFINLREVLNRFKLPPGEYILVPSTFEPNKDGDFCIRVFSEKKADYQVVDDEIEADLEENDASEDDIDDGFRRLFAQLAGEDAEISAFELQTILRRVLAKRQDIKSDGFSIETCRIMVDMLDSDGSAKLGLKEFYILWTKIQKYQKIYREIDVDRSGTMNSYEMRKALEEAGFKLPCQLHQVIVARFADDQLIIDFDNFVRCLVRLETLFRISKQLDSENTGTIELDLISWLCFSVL

[11] = microbe, parasite or virus in culture; assay type: functional; settings: Mycobacterium tuberculosis
[12] = target: T4, Ubiquitin-conjugating enzyme E2 N (Homo sapiens, UniProt P61088); assay type: functional;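 note: Dose-response confirmation in a TR-FRET assay detecting UBC13-driven polyubiquitin chain formation, inhibition measured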
T4 sequence (P61088 whole entry): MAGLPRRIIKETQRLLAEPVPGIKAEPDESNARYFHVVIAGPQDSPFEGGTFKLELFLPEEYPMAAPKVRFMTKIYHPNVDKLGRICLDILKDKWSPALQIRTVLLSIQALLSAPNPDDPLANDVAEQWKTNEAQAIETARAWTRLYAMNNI

[13] = target: T5, Corticotropin-releasing factor receptor 2/Corticotropin-releasing factor-binding protein (Homo sapiens, UniProt P24387+Q13324); test: activators of CRF receptor 2 with binding protein – uHTS hits, confirmation (AID 602473); assay type: functional; settings: read-out: EC50_Mean
T5 sequence (Q13324 whole entry): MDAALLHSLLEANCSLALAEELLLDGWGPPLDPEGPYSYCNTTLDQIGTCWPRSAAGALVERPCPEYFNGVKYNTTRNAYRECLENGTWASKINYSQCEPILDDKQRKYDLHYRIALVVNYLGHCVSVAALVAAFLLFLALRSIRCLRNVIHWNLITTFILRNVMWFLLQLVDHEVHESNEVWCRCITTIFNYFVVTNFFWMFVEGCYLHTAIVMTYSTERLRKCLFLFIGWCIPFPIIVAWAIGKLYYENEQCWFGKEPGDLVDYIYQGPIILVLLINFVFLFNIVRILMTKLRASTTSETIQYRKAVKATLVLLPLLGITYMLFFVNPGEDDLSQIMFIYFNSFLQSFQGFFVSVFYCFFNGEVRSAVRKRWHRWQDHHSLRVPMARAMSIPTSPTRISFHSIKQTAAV
T5 sequence (P24387 whole entry): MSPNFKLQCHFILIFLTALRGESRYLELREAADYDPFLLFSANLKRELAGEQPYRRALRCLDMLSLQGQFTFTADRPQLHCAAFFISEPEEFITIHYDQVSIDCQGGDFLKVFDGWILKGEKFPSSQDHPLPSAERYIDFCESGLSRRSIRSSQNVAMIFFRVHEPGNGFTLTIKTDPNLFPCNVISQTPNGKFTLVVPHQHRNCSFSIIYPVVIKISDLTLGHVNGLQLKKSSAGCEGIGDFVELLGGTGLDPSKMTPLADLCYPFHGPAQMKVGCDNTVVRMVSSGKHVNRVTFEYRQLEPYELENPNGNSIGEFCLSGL

FAD-linked sulfhydryl oxidase ALR, sequence (P55789 whole entry): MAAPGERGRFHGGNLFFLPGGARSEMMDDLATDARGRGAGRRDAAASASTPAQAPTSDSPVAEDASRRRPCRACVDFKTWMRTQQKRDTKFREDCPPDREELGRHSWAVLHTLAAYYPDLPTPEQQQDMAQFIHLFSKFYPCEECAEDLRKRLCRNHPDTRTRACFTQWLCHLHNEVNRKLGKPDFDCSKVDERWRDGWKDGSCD

COc1ccc2c(c1)CCCc1cn[nH]c1-2
GI50 (P388/ADR): > 100 µM (inactive)
GI50 (SN12K1): > 100 µM (inactive)
GI50 (P388): > 100 µM (inactive)

Cc1nn(Cc2ccccc2Cl)c(C)c1NC(=O)c1noc2c1CCCCC2
IC50 [1]: 13.8 µM (active)

CC(C)Sc1sc(C(=O)O)c(-c2ccc(Cl)cc2)c1C#N
IC50 [1]: 13.5 µM (active)

CC1[C@@]2(CCC(C)(C)O2)O[C@@H]2C=C3C4CCC5Cc6nc7c(nc6C[C@@]5(C)C4C[C@H](O)[C@@]3(C)[C@]12O)CC1CCC2C3=C[C@H]4O[C@@]5(O[C@@](C)(CO)C[C@@H]5O)C(C)[C@@]4(O)[C@]3(C)[C@@H](O)CC2[C@]1(C)C7 (stereo partly drawn)
GI50 (P388/ADR): 0.00112 µM (active)
GI50 (SN12K1): 0.000365 µM (active)
GI50 (P388): 0.000365 µM (active)

Cc1cc(C)cc(NS(=O)(=O)c2cnc(Cl)c(Cl)c2)c1
IC50 [1]: 16.6 µM (active)

C[C@H](CN1CC(=O)NC(=O)C1)N1CC(=O)NC(=O)C1
GI50 (P388/ADR): 13.9 µM (inactive)
GI50 (SN12K1): 36.8 µM (inactive)
GI50 (P388): 0.319 µM (active)

CN1CCCN(c2ncnc3scc(-c4ccc(F)cc4)c23)CC1
IC50 [1]: 12.9 µM (active)

CC(C)=CCc1c(C)cc2cc3c(c(O)c2c1O)C(=O)C=C(O)C3(CC=C(C)C)C/C=C(\C)CO (stereo not drawn)
GI50 (P388/ADR): 20.1 µM (inactive)
GI50 (SN12K1): 35.2 µM (inactive)
GI50 (P388): 23.5 µM (inactive)

COc1ccc(-n2nnnc2CNC(=O)c2ccc3ccccc3c2)cc1
IC50 [1]: 14.5 µM (active)

Cc1ccccc1N(C)S(=O)(=O)c1ccc2ncc(C(=O)NCC3CCCO3)c(O)c2c1 (stereo not drawn)
IC50 [1]: 12 µM (active)

C=CC[n+]1c(C)csc1Nc1cccc(Br)c1
AC50 [2]: 7.54 µM (active)

COc1ccc(C(NC(C)=O)c2cc(Cl)c3cccnc3c2O)cc1OC (stereo not drawn)
EC50 [3]: 3.99 µM (active)
EC50 [4]: 0.941 µM (active)
EC50 [5]: 1.01 µM (active)
EC50 (Streptococcus): 3.67 µM (active)
AC50 (INS1): 2.3 µM (active)
AC50 [6]: 3.45 µM (active)
AC50 [7]: 3.12 µM (active)
AC50 [8]: 2.98 µM (active)

CC(NC(=O)c1ccccc1)C(=O)N/N=C/c1ccc(O)cc1 (stereo not drawn)
AC50 [2]: 2.14 µM (active)

CCn1c(N2CCN(S(=O)(=O)c3ccc(Cl)cc3)CC2)nc2ccccc21
EC50 [4]: 1.55 µM (active)
EC50 [5]: > 60 µM (not active)
AC50 [6]: 9.14 µM (active)
AC50 [7]: 58.3 µM (active)
AC50 [8]: 9.17 µM (active)

OCC1CCC(n2cnc3c(O)ncnc32)O1 (stereo not drawn)
GI50 (P388/ADR): > 100 µM (inactive)
GI50 (SN12K1): > 100 µM (inactive)
GI50 (P388): > 100 µM (inactive)

FC(F)(F)C1=NC(=NNc2nnc(-c3ccccc3)c(-c3ccccc3)n2)N=C(C(F)(F)F)C1
GI50 (P388/ADR): 11.1 µM (inactive)
GI50 (SN12K1): 10.1 µM (inactive)
GI50 (P388): 0.891 µM (active)

CNC(SCc1cc2c(cc1Cl)OCO2)=C1C(=O)N(C)C(=O)N(C)C1=O
EC50 [9]: > 195 µM (not active)
AC50 [2]: 1.56 µM (active)

Cc1c(C(=O)c2ccc(N(C)C)cc2)c2ccccn2c1CCC#N
IC50 [10]: > 50 µM (not active)
AC50 [2]: 2.73 µM (active)

Cc1c(N)nc([C@H](CC(N)=O)NC[C@H](N)C(N)=O)nc1C(=O)N[C@H](C(=O)N[C@H](C)[C@@H](O)[C@H](C)C(=O)N[C@H](C(=O)NCCc1nc(-c2nc(C(=O)NCCC[S+](C)C)cs2)cs1)[C@@H](C)O)C(OC1OC(CO)C(O)C(O)C1OC1OC(CO)C(O)C(OC(N)=O)C1O)c1c[nH]cn1 (stereo partly drawn)
GI50 (P388/ADR): 3.49 µM (inactive)
GI50 (SN12K1): 0.19 µM (active)
GI50 (P388): 2.11 µM (inactive)

COc1ccc(C2/C=C\CN(C(=O)c3ccccc3)[C@H](Cc3ccccc3)C(=O)N2Cc2ccc(F)cc2)cc1 (stereo partly drawn)
AC50 (INS1): 7.46 µM (active)

c1ccc(-c2nc3nonc3nc2-c2ccccc2)cc1
CC50 [11]: 17.8 µM (active)
AC50 (INS1): 1.15 µM (active)

CC1CC(C)(C)CC2(C1)NC(=O)N(CC(=O)N1CCN(Cc3ccc(C#N)cc3)CC1)C2=O (stereo not drawn)
AC50 [6]: 1.47 µM (active)
AC50 [7]: 2.54 µM (active)
AC50 [8]: 0.65 µM (active)

Cc1ccc(Cn2c(N/N=C/c3ccncc3)nc3c2c(=O)n(C)c(=O)n3C)cc1
AC50 [2]: 1.77 µM (active)

CCCCC(=O)NC(=S)NNC(=O)c1ccc(OC)cc1
IC50 [12]: > 20 µM (inactive)
EC50 [13]: 5.06 µM (active)

Cc1ccc(S(=O)(=O)NNC(=O)c2ccc3ccccc3n2)cc1
AC50 [2]: 7 µM (active)

COC(=O)c1cccc(NC(=O)c2ccc(S(=O)(=O)N3CCN(C)CC3)cc2)c1
IC50 [1]: 14.5 µM (active)

Cc1ccc(S(=O)(=O)Nc2c(C(=O)O)[nH]c3ccccc23)cc1C
AC50 [2]: 10.8 µM (active)
